In paper PMC4092373, “Cell-secreted Flavins Bound to Membrane Cytochromes Dictate Electron Transfer Reactions to Surfaces with Diverse Charge and pH” (Scientific Reports, 2014):

How the values were obtained:
OmcA = target: T1, OmcA (Shewanella oneidensis, UniProt Q8EG33); assay: whole-cell differential pulse voltammetry; assay type: cell-based; settings: redox peak potential of bound riboflavin, no affinity constant; delta-mtrC cells, 2.0 μM RF, 10 mM lactate, 30 °C; shift lost in delta-omcA cells
T1 construct: native outer-membrane decaheme cytochrome in intact living cells (wild type and delta-mtrC strain on ITO electrode), not purified
T1 sequence (Q8EG33 entry or part of it): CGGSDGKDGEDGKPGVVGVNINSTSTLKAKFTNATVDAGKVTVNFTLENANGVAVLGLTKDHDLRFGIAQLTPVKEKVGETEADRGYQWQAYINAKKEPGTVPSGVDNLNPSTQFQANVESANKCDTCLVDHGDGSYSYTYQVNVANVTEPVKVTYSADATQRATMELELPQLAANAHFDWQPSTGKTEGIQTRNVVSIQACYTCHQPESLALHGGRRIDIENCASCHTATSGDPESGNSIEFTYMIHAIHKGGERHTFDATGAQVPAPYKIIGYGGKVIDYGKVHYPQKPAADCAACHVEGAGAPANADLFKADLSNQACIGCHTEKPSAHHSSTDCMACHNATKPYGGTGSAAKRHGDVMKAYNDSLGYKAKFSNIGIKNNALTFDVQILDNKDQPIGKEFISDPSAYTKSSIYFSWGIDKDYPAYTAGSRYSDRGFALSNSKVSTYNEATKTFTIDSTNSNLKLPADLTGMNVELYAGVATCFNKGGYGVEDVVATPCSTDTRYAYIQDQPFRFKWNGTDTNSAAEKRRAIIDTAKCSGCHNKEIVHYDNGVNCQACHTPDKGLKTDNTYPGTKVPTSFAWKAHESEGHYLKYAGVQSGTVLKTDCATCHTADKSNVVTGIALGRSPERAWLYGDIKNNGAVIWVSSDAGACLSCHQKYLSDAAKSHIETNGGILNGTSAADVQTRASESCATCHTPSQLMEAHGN

MtrC = target: T2, MtrC (Shewanella oneidensis, UniProt Q8EG34); assay: whole-cell differential pulse voltammetry; assay type: cell-based; settings: rough estimate in living wild-type MR-1 monolayer biofilm; printed for FMN and OM c-Cyts collectively, assigned to MtrC by gene deletions; saturation assumed at 52 μM FMN; semiquinone form bound under
T2 construct: native outer-membrane decaheme cytochrome in intact living cells (monolayer biofilm on ITO electrode), not purified
T2 sequence (Q8EG34 entry or part of it): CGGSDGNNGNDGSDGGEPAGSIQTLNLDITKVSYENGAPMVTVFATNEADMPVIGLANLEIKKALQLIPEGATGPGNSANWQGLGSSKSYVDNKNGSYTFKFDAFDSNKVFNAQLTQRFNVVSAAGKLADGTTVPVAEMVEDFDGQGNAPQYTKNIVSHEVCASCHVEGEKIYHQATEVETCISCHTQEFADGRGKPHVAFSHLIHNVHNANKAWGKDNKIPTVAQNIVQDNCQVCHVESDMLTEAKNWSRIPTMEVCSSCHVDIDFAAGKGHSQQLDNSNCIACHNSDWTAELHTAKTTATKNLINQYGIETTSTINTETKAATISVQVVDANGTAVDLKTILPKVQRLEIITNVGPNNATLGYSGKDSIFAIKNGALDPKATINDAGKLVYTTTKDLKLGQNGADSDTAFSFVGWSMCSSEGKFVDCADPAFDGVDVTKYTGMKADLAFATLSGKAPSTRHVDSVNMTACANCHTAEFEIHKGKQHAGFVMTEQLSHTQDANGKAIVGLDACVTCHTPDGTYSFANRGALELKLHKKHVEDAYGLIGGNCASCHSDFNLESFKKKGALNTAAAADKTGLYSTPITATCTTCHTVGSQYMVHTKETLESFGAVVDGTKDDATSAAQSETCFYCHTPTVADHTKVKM

Ep (OmcA)	Kd (MtrC)	Compound
−102 mV		Cc1cc2nc3c(=O)[nH]c(=O)nc-3n(C[C@H](O)[C@H](O)[C@H](O)CO)c2cc1C [RF, riboflavin]
	~10 µM	Cc1cc2nc3c(=O)[nH]c(=O)nc-3n(C[C@H](O)[C@H](O)[C@H](O)COP(=O)(O)O)c2cc1C [FMN, flavin mononucleotide]
